# Measured values as given in patent US4464373A, “4,5-Dihydroimidazo-[1,2-a]quinoxaline-2-carboxylic acids and their derivatives with antiallergic activity” (Roussel Uclaf, priority 1982, dated 1984).
# Tested on: passive cutaneous reaction mediated by Ig G antibodies
# Experiment: Passive cutaneous anaphylaxis of the rat (PCR), Ig G mediated, oral
# Assay type: in vivo
# Details: male Wistar rats, ovalbumin challenge
# Procedure: Passive cutaneous anaphylaxis of the rat (PCR)
# Passive cutaneous anaphylaxis in the rat was carried out with male Wistar rats weighing 180-200 g which were sensitized by intradermal injection into four sites on the shaved back to produce a passive cutaneous reaction mediated by Ig G antibodies (a 4 hour sensitization following injection of antiserum heated at 56° C. for one hour). Antigen challenge was carried out in the same way; 1 mg of ovalbumen together with 0.5 ml of 1% Evans blue dye solution were injected intravenously and 30 minutes later, the animals were killed and the severity and area of each blue spot was scored when viewed from the reverse side of the skin.
SMILES,inhibition in vivo at 0.1 mg/kg [%],inhibition in vivo at 1 mg/kg [%]
"CCOC(=O)c1cn2c(n1)CN(C(=O)OCC)c1ccccc1-2 [Example 3, Diethyl 4,5-dihydroimidazo[1,2-a]quinoxaline-2,5-dicarboxylate]",26.3,67.5
"CCOC(=O)c1cn2c(n1)CN(C(=O)Nc1ccccc1)c1ccccc1-2 [Example 4, Ethyl 4,5-dihydro-5-(phenylcarboxamido)imidazo[1,2-a]quinoxaline-2-carboxylate]",,5.2
"CCOC(=O)c1cn2c(n1)CN(C(=O)NCCN1CCOCC1)c1ccccc1-2 [Example 5B, Ethyl 4,5-dihydro-5-(morpholinoethylcarboxamido)imidazo[1,2-a]quinoxaline-2-carboxylate]",,33.8
"COC(=O)N1Cc2nc(C(=O)O)cn2-c2ccccc21 [Example 6, 4,5-dihydro-5-(methoxycarbonyl)imidazo[1,2-a]quinoxaline-2-carboxylic acid]",19,61.1
"CCOC(=O)c1cn2c(n1)CN(C(C)=O)c1ccccc1-2 [Example 7, Ethyl 5-acetyl-4,5-dihydroimidazo[1,2-a]quinoxaline-2-carboxylate]",32.5,49.4
"CCOC(=O)c1cn2c(n1)CN(C(=O)OCc1ccccc1)c1ccccc1-2 [Example 8, Ethyl 4,5-dihydro-5-(benzyloxycarbonyl)imidazo[1,2-a]quinoxaline-2-carboxylate]",,14.3
"CCOC(=O)c1cn2c(n1)CN(C(=O)OC)c1ccccc1-2 [Example 9, Ethyl 4,5-dihydro-5-(methoxycarbonyl)imidazo[1,2-a]quinoxaline-2-carboxylate]",18.8,75.6
"CCCOC(=O)N1Cc2nc(C(=O)OCC)cn2-c2ccccc21 [Example 11, Ethyl 4,5-dihydro-5-(propyloxycarbonyl)imidazo[1,2-a]quinoxaline-2-carboxylate]",,44
"CCCCOC(=O)N1Cc2nc(C(=O)OCC)cn2-c2ccccc21 [Example 12, Ethyl 4,5-dihydro-5-(butyloxycarbonyl)imidazo[1,2-a]quinoxaline-2-carboxylate]",,26.2
"CCOC(=O)c1cn2c(n1)CN(C(=O)NCCN(CC)CC)c1ccccc1-2 [Example 14, Ethyl 4,5-dihydro-5-(diethylaminoethylcarboxamido)imidazo[1,2-a]quinoxaline-2-carboxylate]",16.8,42.8
